Results taken from patent US20210393735A1, “PHARMACEUTICAL COMPOSITION COMPRISING TEICOPLANIN” (GALENUS G.H. AG, priority 2018, published 2021).

Key:
[1] = Phase-1 open cross-over cohort study in healthy subjects: conventional vs novel teicoplanin dosage regimen (pharmacokinetics, tolerability); assay type: in vivo, human (healthy subjects)
Method: Teicoplanin: Conventional Dosage Regimen as Compared to the Novel Dosage Regimen
Phase-1 Study in Healthy Subjects
The study is performed as an open, cross over cohort-study after having received ethical approval and written consent by the participating 6 healthy subjects (3 males and 3 females). The principle study design of Outman et al (1990 [4]) is used with the following modification: 6 loading doses are followed by the maintenance dosing phase up to a total of 6 days.
In the first cross over comparative study, the following two dosage regimens are used:
Regimen A1: 6 loading dosages of 400 mg twice daily (bid) followed by 3 dosages of 400 mg once daily (total 6 days): total dosage 3600 mg
Regimen B1: first loading dose 800 mg followed by 4 dosages 400 mg bid, followed by 6 dosages 200 mg bid (total 6 days): total dosage 3600 mg.
In the second cross over comparative study, the following two dosage regimens are used:
Regimen A2: 6 loading dosages of 800 mg bid followed by 3 dosages of 800 mg once daily (total 6 days): total dosage 7200 mg
Regimen B2: 6 loading dosages of 800 mg bid followed by 6 dosages 400 mg bid (total 6 days): total dosage 7200 mg.

[2] = test system: Gram-positive bacteria such as staphylococci (including methicillin-resistant strains), streptococci, enterococci and many anaerobic Gram-positive bacteria; details: Campoli-Richards et al. 1990 [2]; cited from earlier work
[3] = test system: clinical isolates of Clostridium difficile; details: isolates from patients with hospital or community acquired CDI; Jamal, Rotimi 2016 [3]; cited from earlier work
[4] = in vivo; cited from earlier work
[5] = overall, no significant difference between regimens A and B in both studies

## teicoplanin
[1]; 1st and 2nd study
  phlebitis or renal, hepatic, or ototoxicity: no evidence
[1]; 1st and 2nd study, both dosing regimens
  tolerability: generally well tolerated
[1]; 1st study, 1st day, regimen A1 (6 x 400 mg bid, then 3 x 400 mg once daily)
  trough levels: 8 to 15 mg/L
[1]; 1st study, 1st day, regimen B1 (800 mg, then 4 x 400 mg bid, then 6 x 200 mg bid)
  trough levels: 18 to 25 mg/L
[1]; 1st study, day 4 to 6, regimen A1
  trough levels: 10 to 18 mg/L
[1]; 1st study, day 4 to 6, regimen B1
  trough levels: 20 to 30 mg/L
[1]; 2nd study, 1st day, regimen A2 (6 x 800 mg bid, then 3 x 800 mg once daily)
  trough levels: 14 to 24 mg/L
[1]; 2nd study, 1st day, regimen B2 (6 x 800 mg bid, then 6 x 400 mg bid)
  trough levels: 25 to 34 mg/L
[1]; 2nd study, day 4 to 6, regimen A2
  trough levels: 18 to 26 mg/L
[1]; 2nd study, day 4 to 6, regimen B2
  trough levels: 30 to 38 mg/L
[1]; at the 1st day (first study only) and from day 4 on
  higher trough levels with novel vs conventional dosage regimen: about 50%
[1]; during infusion of some, but not all, doses, 6 healthy subjects
  lightheadedness during the infusion: Two subjects experience transient lightheadedness
[1]; [5]
  renal clearance: 0.19 ± 0.015 mL/min/kg
  t1/2: 157+93 h
  total clearance: 0.21 ± 0.018 mL/min/kg
[2]
  susceptibility in vitro: susceptible
[3]
  activity against clinical isolates: active
[4]
  terminal half-life, mean (±SD): 157 (±93) hours (h)
  terminal half-life, median (range): 168 (111-278) h
